Experimental data as given in ChEMBL document CHEMBL1201862, “PubChem BioAssay data set” (2004).
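Grown in 96-well plates, cells were treated for 48 hours with each compound at five concentrations. Insufficient inhibition: endpoint recorded as highest concentration tested. GI50 is the concentration that inhibits growth by half.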 Calls of active or inactive are those of the source. Rule as the data show it: active = GI50 up to about 1.1 µM and inactive = higher.

Columns and labels:
Experiment in all cases: NCI tumour cell line growth inhibition, 48 h
MDA-MB-231 = system: MDA-MB-231
K562 = system: K562
HCT-116 = system: HCT-116
NCI-H23 = system: NCI-H23
CAKI-1 = system: CAKI-1
RPMI-8226 = system: RPMI-8226
RXF 393 = system: RXF 393
BT-549 = system: BT-549
MOLT-4 = system: MOLT-4
SK-MEL-5 = system: SK-MEL-5
NCI-H226 = system: NCI-H226
CCRF-CEM = system: CCRF-CEM
U-251 = system: U-251
UACC-257 = system: UACC-257
Hs-578T = system: Hs-578T
TK-10 = system: TK-10
HCC 2998 = system: HCC 2998
COLO 205 = system: COLO 205
SK-OV-3 = system: SK-OV-3
SF-539 = system: SF-539

SMILES	GI50 (MDA-MB-231)	GI50 (K562)	GI50 (HCT-116)	GI50 (NCI-H23)	GI50 (CAKI-1)	GI50 (RPMI-8226)	GI50 (RXF 393)	GI50 (BT-549)	GI50 (MOLT-4)	GI50 (SK-MEL-5)	GI50 (NCI-H226)	GI50 (CCRF-CEM)	GI50 (U-251)	GI50 (UACC-257)	GI50 (Hs-578T)	GI50 (TK-10)	GI50 (HCC 2998)	GI50 (COLO 205)	GI50 (SK-OV-3)	GI50 (SF-539)
Cc1ccc(C2(c3ccc(C)c(O)c3C)CCN(C)CC2)c(C)c1O	34.8 µM (inactive)	84.7 µM (inactive)	38.5 µM (inactive)	> 100 µM (inactive)	> 100 µM (inactive)	> 100 µM (inactive)	78.5 µM (inactive)	> 100 µM (inactive)	> 100 µM (inactive)	> 100 µM (inactive)	> 100 µM (inactive)	60.1 µM (inactive)	39.4 µM (inactive)	15.8 µM (inactive)	> 100 µM (inactive)	19.9 µM (inactive)	–	–	–	–
CC1=C2C(=O)O[C@@H](c3ccoc3)[C@]2(C)CCC1=O [FRAXINELLONONE]	> 100 µM (inactive)	> 100 µM (inactive)	> 100 µM (inactive)	> 100 µM (inactive)	> 100 µM (inactive)	> 100 µM (inactive)	–	> 100 µM (inactive)	> 100 µM (inactive)	> 100 µM (inactive)	> 100 µM (inactive)	> 100 µM (inactive)	> 100 µM (inactive)	> 100 µM (inactive)	–	–	> 100 µM (inactive)	> 100 µM (inactive)	> 100 µM (inactive)	> 100 µM (inactive)
CN(C)CCCNc1c2c(=O)n(C)c(=O)nc-2n(C)c2ccccc12	6 µM (inactive)	4.8 µM (inactive)	3.69 µM (inactive)	7.41 µM (inactive)	7.13 µM (inactive)	7.1 µM (inactive)	7.8 µM (inactive)	12.7 µM (inactive)	3.01 µM (inactive)	6.21 µM (inactive)	5.07 µM (inactive)	3.4 µM (inactive)	3.26 µM (inactive)	4.86 µM (inactive)	10.1 µM (inactive)	5.26 µM (inactive)	–	3.21 µM (inactive)	6.24 µM (inactive)	6.73 µM (inactive)
C=CCOc1cc(NC(=S)c2ccoc2C)ccc1OC	> 100 µM (inactive)	> 100 µM (inactive)	> 100 µM (inactive)	> 100 µM (inactive)	> 100 µM (inactive)	> 100 µM (inactive)	–	> 100 µM (inactive)	> 100 µM (inactive)	> 100 µM (inactive)	> 100 µM (inactive)	> 100 µM (inactive)	58.9 µM (inactive)	> 100 µM (inactive)	> 100 µM (inactive)	–	> 100 µM (inactive)	> 100 µM (inactive)	> 100 µM (inactive)	> 100 µM (inactive)
CCOC(=O)C(O)(C(=O)OCC)c1cc(C(C)(C)C)c(O)c(C(C)(C)C)c1	53 µM (inactive)	33.6 µM (inactive)	35.1 µM (inactive)	43.6 µM (inactive)	41.2 µM (inactive)	26.1 µM (inactive)	21.1 µM (inactive)	39.2 µM (inactive)	25.8 µM (inactive)	17.8 µM (inactive)	16.4 µM (inactive)	37.2 µM (inactive)	41 µM (inactive)	34.4 µM (inactive)	32.7 µM (inactive)	34.5 µM (inactive)	–	36.1 µM (inactive)	70.3 µM (inactive)	28.4 µM (inactive)
N=C(N)NCCCCCCC(=O)NC(O)C(=O)NCCCCNCCCN (centres undefined)	> 750 µM (inactive)	551 µM (inactive)	711 µM (inactive)	684 µM (inactive)	–	483 µM (inactive)	700 µM (inactive)	372 µM (inactive)	659 µM (inactive)	> 750 µM (inactive)	687 µM (inactive)	515 µM (inactive)	611 µM (inactive)	> 750 µM (inactive)	748 µM (inactive)	> 750 µM (inactive)	> 562 µM (inactive)	600 µM (inactive)	> 750 µM (inactive)	> 628 µM (inactive)
O=C(NC(CCCCN1C(=O)c2ccccc2C1=O)P(=O)(Oc1ccccc1)Oc1ccccc1)OCc1ccccc1 (centres undefined)	–	–	–	7.33 µM (inactive)	> 100 µM (inactive)	> 100 µM (inactive)	> 100 µM (inactive)	> 100 µM (inactive)	–	> 100 µM (inactive)	> 100 µM (inactive)	–	> 100 µM (inactive)	> 100 µM (inactive)	> 100 µM (inactive)	> 100 µM (inactive)	> 100 µM (inactive)	> 100 µM (inactive)	> 100 µM (inactive)	> 100 µM (inactive)
CC(=O)Nc1ccc(NC(=O)CC(=O)Nc2ccc(NC(C)=O)cc2)cc1	> 100 µM (inactive)	> 100 µM (inactive)	> 100 µM (inactive)	> 100 µM (inactive)	> 100 µM (inactive)	> 100 µM (inactive)	–	> 100 µM (inactive)	> 100 µM (inactive)	> 100 µM (inactive)	> 100 µM (inactive)	> 100 µM (inactive)	32.1 µM (inactive)	> 100 µM (inactive)	> 100 µM (inactive)	> 100 µM (inactive)	19.4 µM (inactive)	> 100 µM (inactive)	20.2 µM (inactive)	> 100 µM (inactive)
O=C1[C@H](O)[C@@H]2C(O)O[C@H]3[C@@H]2N1C[C@H]3[Si](c1ccccc1)(c1ccccc1)c1ccccc1 (some centres undefined)	> 100 µM (inactive)	> 100 µM (inactive)	> 100 µM (inactive)	> 100 µM (inactive)	> 100 µM (inactive)	> 100 µM (inactive)	20.2 µM (inactive)	> 100 µM (inactive)	> 100 µM (inactive)	> 100 µM (inactive)	> 100 µM (inactive)	–	> 100 µM (inactive)	> 100 µM (inactive)	–	> 100 µM (inactive)	> 100 µM (inactive)	> 100 µM (inactive)	> 100 µM (inactive)	> 100 µM (inactive)
CC(Cc1ccc(O)cc1)NCC(O)c1ccc(O)c(O)c1 (centres undefined)	3.35 µM (inactive)	> 100 µM (inactive)	> 100 µM (inactive)	> 100 µM (inactive)	> 100 µM (inactive)	> 100 µM (inactive)	> 100 µM (inactive)	> 100 µM (inactive)	73.5 µM (inactive)	> 100 µM (inactive)	> 100 µM (inactive)	> 100 µM (inactive)	> 100 µM (inactive)	> 100 µM (inactive)	> 100 µM (inactive)	> 100 µM (inactive)	–	–	> 100 µM (inactive)	> 100 µM (inactive)
CCOC(=O)CCC(NC(=O)OCc1ccccc1)C(=O)NC(CCC(=O)OCC)C(=O)NC(CCC(=O)OCC)C(=O)NC(CCC(=O)OCC)C(=O)NC(CCC(=O)OCC)C(=O)OCC (centres undefined)	–	–	> 100 µM (inactive)	> 100 µM (inactive)	> 100 µM (inactive)	> 100 µM (inactive)	> 100 µM (inactive)	> 100 µM (inactive)	> 100 µM (inactive)	> 100 µM (inactive)	–	> 100 µM (inactive)	> 100 µM (inactive)	> 100 µM (inactive)	> 100 µM (inactive)	> 100 µM (inactive)	–	> 100 µM (inactive)	> 100 µM (inactive)	–
C[C@@H]1CC[C@@]2(C)C(C(=O)O)=CCCC2[C@@]1(C)CC(=O)c1ccoc1 (some centres undefined)	> 25 µM (inactive)	–	> 25 µM (inactive)	> 25 µM (inactive)	> 25 µM (inactive)	> 25 µM (inactive)	> 25 µM (inactive)	> 25 µM (inactive)	> 25 µM (inactive)	> 25 µM (inactive)	> 25 µM (inactive)	> 25 µM (inactive)	> 25 µM (inactive)	> 25 µM (inactive)	> 25 µM (inactive)	> 25 µM (inactive)	–	> 25 µM (inactive)	> 25 µM (inactive)	> 25 µM (inactive)
CCn1ncc2c(=O)n3ncn(-c4ccc(Br)cc4)c3nc21	> 100 µM (inactive)	> 100 µM (inactive)	> 100 µM (inactive)	> 100 µM (inactive)	–	> 100 µM (inactive)	> 100 µM (inactive)	> 100 µM (inactive)	> 100 µM (inactive)	> 100 µM (inactive)	> 100 µM (inactive)	> 100 µM (inactive)	> 100 µM (inactive)	> 100 µM (inactive)	> 100 µM (inactive)	> 100 µM (inactive)	> 100 µM (inactive)	> 100 µM (inactive)	> 100 µM (inactive)	–
C=C(C)[C@H]1C=C[C@@H](OC(C)=O)[C@@]2(COC(C)=O)[C@H](OC(=O)CCC)[C@H]3[C@@H](OC(C)=O)[C@@H](C)C[C@]3(O)C(=O)[C@@](C)(OC(C)=O)[C@H]12	56.9 µM (inactive)	31.6 µM (inactive)	37.6 µM (inactive)	39.3 µM (inactive)	> 100 µM (inactive)	30.3 µM (inactive)	> 100 µM (inactive)	58.2 µM (inactive)	33.6 µM (inactive)	34.7 µM (inactive)	40.1 µM (inactive)	42.4 µM (inactive)	33.9 µM (inactive)	39.4 µM (inactive)	43.1 µM (inactive)	32.2 µM (inactive)	27.1 µM (inactive)	22 µM (inactive)	–	–
CC(=O)CCN1CC2CN=NC2(C#N)C1 (centres undefined)	> 100 µM (inactive)	6.7 µM (inactive)	34 µM (inactive)	> 100 µM (inactive)	0.379 µM (active)	–	94.4 µM (inactive)	> 100 µM (inactive)	14.7 µM (inactive)	> 100 µM (inactive)	20.7 µM (inactive)	15.9 µM (inactive)	> 100 µM (inactive)	> 100 µM (inactive)	1.65 µM (inactive)	> 100 µM (inactive)	> 100 µM (inactive)	36.2 µM (inactive)	–	–
